# Reference: PubChem BioAssay (NCI)
#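 GI50 marks 50% less growth. Definition used: TGI = concentration required for complete inhibition of growth.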
# Key:
# Assay in all cases: inhibition of tumour cell growth, NCI panel, 384-well format
# SK-MEL-28 melanoma = tested on: SK-MEL-28 melanoma
# SNB-19 CNS = tested on: SNB-19 CNS
# BT-549 breast = tested on: BT-549 breast
# SW-620 colon = tested on: SW-620 colon
# COLO 205 colon = tested on: COLO 205 colon
# ACHN renal = tested on: ACHN renal
# SF-539 CNS = tested on: SF-539 CNS
# SN12C renal = tested on: SN12C renal
# HOP-62 NSCLC = tested on: HOP-62 NSCLC
# MALME-3M melanoma = tested on: MALME-3M melanoma
# MCF7 breast = tested on: MCF7 breast
# CAKI-1 renal = tested on: CAKI-1 renal
# HS 578T breast = tested on: HS 578T breast
# OVCAR-5 ovarian = tested on: OVCAR-5 ovarian
# NCI-H23 lung = tested on: NCI-H23 lung
# DU-145 prostate = tested on: DU-145 prostate
# CCRF-CEM leukemia = tested on: CCRF-CEM leukemia
# UACC-62 melanoma = tested on: UACC-62 melanoma
# OVCAR-4 ovarian = tested on: OVCAR-4 ovarian
# HT29 colon = tested on: HT29 colon
# KM12 colon = tested on: KM12 colon
# 786-0 renal = tested on: 786-0 renal
# SK-OV-3 ovarian = tested on: SK-OV-3 ovarian
# HCC-2998 colon = tested on: HCC-2998 colon
# A549 NSCLC = tested on: A549 NSCLC
# NCI-H322M lung = tested on: NCI-H322M lung
# RPMI-8226 leukemia = tested on: RPMI-8226 leukemia
# A498 renal = tested on: A498 renal
# SK-MEL-5 melanoma = tested on: SK-MEL-5 melanoma
# HCT-15 colon = tested on: HCT-15 colon
# HL-60(TB) leukemia = tested on: HL-60(TB) leukemia
# MOLT-4 leukemia = tested on: MOLT-4 leukemia
# MDA-MB-231 breast = tested on: MDA-MB-231 breast
# RXF 393 renal = tested on: RXF 393 renal
# HOP-92 NSCLC = tested on: HOP-92 NSCLC
# U251 glioblastoma = tested on: U251 glioblastoma
# EKVX NSCLC = tested on: EKVX NSCLC
# OVCAR-8 ovarian = tested on: OVCAR-8 ovarian
# MDA-MB-468 breast = tested on: MDA-MB-468 breast
# T-47D breast = tested on: T-47D breast
# M14 melanoma = tested on: M14 melanoma
# LOX IMVI melanoma = tested on: LOX IMVI melanoma
# OVCAR-3 ovarian = tested on: OVCAR-3 ovarian
# NCI-H460 NSCLC = tested on: NCI-H460 NSCLC
# NCI-H522 lung = tested on: NCI-H522 lung
# IGROV1 ovarian = tested on: IGROV1 ovarian
# K-562 leukemia = tested on: K-562 leukemia
# NCI-H226 lung = tested on: NCI-H226 lung
# MDA-MB-435 melanoma = tested on: MDA-MB-435 melanoma
# HCT-116 colon = tested on: HCT-116 colon
# UACC-257 melanoma = tested on: UACC-257 melanoma
# PC-3 prostate = tested on: PC-3 prostate
# TK-10 renal = tested on: TK-10 renal
# SF-295 CNS = tested on: SF-295 CNS
# NCI/ADR-RES ovarian = tested on: NCI/ADR-RES ovarian
# UO-31 renal = tested on: UO-31 renal
# SNB-75 CNS = tested on: SNB-75 CNS
# SF-268 CNS = tested on: SF-268 CNS
compound,measurement,setting,value
C[C@@H](NC(=O)c1ncnc(N)c1Cl)c1ncc(C(=O)Nc2cc(C(F)(F)F)c(Cl)cn2)s1,GI50,SK-MEL-28 melanoma,0.419 µM
same,TGI,SK-MEL-28 melanoma,2.67 µM
same,GI50,SNB-19 CNS,29.4 µM
same,TGI,SNB-19 CNS,91.4 µM
same,GI50,BT-549 breast,16.2 µM
same,TGI,BT-549 breast,30.8 µM
same,GI50,SW-620 colon,10.8 µM
same,TGI,SW-620 colon,26.6 µM
same,GI50,COLO 205 colon,0.441 µM
same,TGI,COLO 205 colon,12.2 µM
same,GI50,ACHN renal,13.7 µM
same,TGI,ACHN renal,37.8 µM
same,GI50,SF-539 CNS,17.4 µM
same,TGI,SF-539 CNS,35.9 µM
same,GI50,SN12C renal,15.3 µM
same,TGI,SN12C renal,40.6 µM
same,GI50,HOP-62 NSCLC,12 µM
same,TGI,HOP-62 NSCLC,24.8 µM
same,GI50,MALME-3M melanoma,0.0475 µM
same,TGI,MALME-3M melanoma,0.289 µM
same,GI50,MCF7 breast,14.5 µM
same,TGI,MCF7 breast,28.7 µM
same,GI50,CAKI-1 renal,11.6 µM
same,TGI,CAKI-1 renal,26.5 µM
same,GI50,HS 578T breast,15 µM
same,TGI,HS 578T breast,28.4 µM
same,GI50,OVCAR-5 ovarian,5.67 µM
same,TGI,OVCAR-5 ovarian,29.6 µM
same,GI50,NCI-H23 lung,1.88 µM
same,TGI,NCI-H23 lung,8.75 µM
same,GI50,DU-145 prostate,18 µM
same,TGI,DU-145 prostate,35.2 µM
same,GI50,CCRF-CEM leukemia,12.8 µM
same,TGI,CCRF-CEM leukemia,25.5 µM
same,GI50,UACC-62 melanoma,0.154 µM
same,TGI,UACC-62 melanoma,1.41 µM
same,GI50,OVCAR-4 ovarian,20.6 µM
same,TGI,OVCAR-4 ovarian,38 µM
same,GI50,HT29 colon,0.555 µM
same,TGI,HT29 colon,15.4 µM
same,GI50,KM12 colon,13.1 µM
same,TGI,KM12 colon,31.3 µM
same,GI50,786-0 renal,16.8 µM
same,TGI,786-0 renal,32.9 µM
same,GI50,SK-OV-3 ovarian,20.5 µM
same,TGI,SK-OV-3 ovarian,42.6 µM
same,GI50,HCC-2998 colon,4.74 µM
same,TGI,HCC-2998 colon,18.5 µM
same,GI50,A549 NSCLC,10.3 µM
same,TGI,A549 NSCLC,27.8 µM
same,GI50,NCI-H322M lung,13 µM
same,TGI,NCI-H322M lung,28.1 µM
same,GI50,RPMI-8226 leukemia,13.9 µM
same,TGI,RPMI-8226 leukemia,27.1 µM
same,GI50,A498 renal,16.1 µM
same,TGI,A498 renal,39.7 µM
same,GI50,SK-MEL-5 melanoma,1.35 µM
same,TGI,SK-MEL-5 melanoma,15.2 µM
same,GI50,HCT-15 colon,11.2 µM
same,TGI,HCT-15 colon,25.6 µM
same,GI50,HL-60(TB) leukemia,0.717 µM
same,TGI,HL-60(TB) leukemia,10.8 µM
same,GI50,MOLT-4 leukemia,11.1 µM
same,TGI,MOLT-4 leukemia,23.2 µM
same,GI50,MDA-MB-231 breast,2.11 µM
same,TGI,MDA-MB-231 breast,20.3 µM
same,GI50,RXF 393 renal,18.7 µM
same,TGI,RXF 393 renal,40 µM
same,GI50,HOP-92 NSCLC,4.23 µM
same,TGI,HOP-92 NSCLC,14.9 µM
same,GI50,U251 glioblastoma,18 µM
same,TGI,U251 glioblastoma,39.1 µM
same,GI50,EKVX NSCLC,14.8 µM
same,TGI,EKVX NSCLC,29.1 µM
same,GI50,OVCAR-8 ovarian,14.4 µM
same,TGI,OVCAR-8 ovarian,27.7 µM
same,GI50,MDA-MB-468 breast,22 µM
same,TGI,MDA-MB-468 breast,39 µM
same,GI50,T-47D breast,10.2 µM
same,TGI,T-47D breast,22.7 µM
same,GI50,M14 melanoma,0.157 µM
same,TGI,M14 melanoma,1.16 µM
same,GI50,LOX IMVI melanoma,1.42 µM
same,TGI,LOX IMVI melanoma,13.7 µM
same,GI50,OVCAR-3 ovarian,16.2 µM
same,TGI,OVCAR-3 ovarian,34.1 µM
same,GI50,NCI-H460 NSCLC,9.03 µM
same,TGI,NCI-H460 NSCLC,21.7 µM
same,GI50,NCI-H522 lung,13.7 µM
same,TGI,NCI-H522 lung,26.6 µM
same,GI50,IGROV1 ovarian,5.42 µM
same,TGI,IGROV1 ovarian,20.8 µM
same,GI50,K-562 leukemia,0.281 µM
same,TGI,K-562 leukemia,1.2 µM
same,GI50,NCI-H226 lung,15.8 µM
same,TGI,NCI-H226 lung,40.4 µM
same,GI50,MDA-MB-435 melanoma,1.37 µM
same,TGI,MDA-MB-435 melanoma,15.9 µM
same,GI50,HCT-116 colon,2.24 µM
same,TGI,HCT-116 colon,13.6 µM
same,GI50,UACC-257 melanoma,0.406 µM
same,TGI,UACC-257 melanoma,2.48 µM
same,GI50,PC-3 prostate,20.4 µM
same,TGI,PC-3 prostate,35 µM
same,GI50,TK-10 renal,18.8 µM
same,TGI,TK-10 renal,36.4 µM
same,GI50,SF-295 CNS,17.7 µM
same,TGI,SF-295 CNS,32.8 µM
same,GI50,NCI/ADR-RES ovarian,16.9 µM
same,TGI,NCI/ADR-RES ovarian,32 µM
same,GI50,UO-31 renal,11.5 µM
same,TGI,UO-31 renal,32.5 µM
same,GI50,SNB-75 CNS,23.7 µM
same,TGI,SNB-75 CNS,48.1 µM
same,GI50,SF-268 CNS,12.3 µM
same,TGI,SF-268 CNS,24.9 µM
